Results reported in ChEMBL document CHEMBL3507680, “University of Dundee, Gates Library screen for HepG2 cell viability”.

Assay: Human HepG2 cell viability assay in 384 well format
Assay type: toxicity, cell-based
Set-up: dose 125 nL, time 70.5 hour; cytotoxicity at 70.5 h: concentration not given beside the values
Settings: HepG2 cells, read-out: Inhibition

Compound | cytotoxicity at 70.5 h [%]
O=C(c1ccnc(-n2ccnc2)c1)N1CCCC(n2cccn2)C1 (configuration not stated) | -2.44
Cn1cc(C(=O)CC2CCCN2C(=O)c2cccc3ncccc23)cn1 (configuration not stated) | 14.5
Cc1cc(C)n(CC2CCCN2C(=O)c2ccc3ccccc3n2)n1 (configuration not stated) | -10.7
COCCNC(=O)CN1CCCC1c1c(C)nn(C)c1Cl (configuration not stated) | -1.71
COc1ccc(C(=O)N2CCCC(n3cncn3)C2)nn1 (configuration not stated) | 10.5
CCc1ccccc1C(=O)N1CCCC1CC(=O)c1cnn(C)c1 (configuration not stated) | -13.4
c1ncn(CC2CN(CCCOc3ccc4c(c3)OCO4)CCO2)n1 (configuration not stated) | -4.94
Cc1nc(C)n(CC2CCCN(CCCc3ccccc3)C2)n1 (configuration not stated) | 4.81
COc1cccc(CNC(=O)c2cccnc2SC(C)C)c1 | -5.9
CC(NC(=O)Cn1cc(-c2ccccc2)cn1)C1CC1 (configuration not stated) | -6.64
Cc1cc(C)c(CNC(=O)N2CCCC2c2cccc(F)c2)c(=O)[nH]1 (configuration not stated) | 26
c1cc(CNCC2CNc3ccnn3C2)cc(N2CCOCC2)n1 (configuration not stated) | -5.11
c1cc(CNCC2CNc3ccnn3C2)cc(OC2CCCC2)n1 (configuration not stated) | -5.92
Cc1cc(C)c(CNC(=O)N2CCCC2c2ccccn2)c(=O)[nH]1 (configuration not stated) | -6.29
CCC(CC)NC(=O)Cn1cc(-c2ccccc2)cn1 | -2.71
COc1ccccc1OCCNC(=O)N1CCC(n2cncn2)CC1 | -4.48
CCOc1ncccc1CNC(=O)N1CCC(n2cncn2)CC1 | -0.329
O=C1NCC(C(=O)Nc2ncc(Cc3cccc(F)c3)s2)N1 (configuration not stated) | -6.09
CC(C)c1cc(NC(=O)CNC2CCCN(c3cccnn3)C2)on1 (configuration not stated) | 3.11
Cc1nc(C)n(C2CCCN(C(=O)CCCNc3ncccn3)C2)n1 (configuration not stated) | -4.88
CCc1n[nH]c(C2CN(C(=O)CCn3ccccc3=O)CCO2)n1 (configuration not stated) | -2.35
CN1CCCN(C(=O)NCCNc2cnccn2)CC1 | -3.22
COc1ccccc1CCNC(=O)N1CCC(n2cncn2)CC1 | -7.07
CC(=O)N1CCCN(C(=O)NCCNc2cnccn2)CC1 | -2.47
Cc1nc(C)n(CC2CCCN(CCCOc3ccc(F)cc3)C2)n1 (configuration not stated) | -2.75
O=C(NCCc1ccc(F)cc1)NCC(O)c1cccc(F)c1 (configuration not stated) | 23.3

Compound | cytotoxicity at 70.5 h [%]
COCCc1noc(CN2CCCC2Cn2nc(C)nc2C)n1 (configuration not stated) | 44.8
CCC1CN(CC(=O)N2CCCC2)CCN1CCOC (configuration not stated) | -10.3
Cc1ccc(N2CCCC(NCc3sccc3C)C2)nn1 (configuration not stated) | -7.95
Cc1nc(C)n(CC2CN(Cc3nc4ccccc4s3)CCO2)n1 (configuration not stated) | 18.9
CCC1CN(CC(=O)N2CCN(C(C)=O)CC2)CCN1CCOC (configuration not stated) | -7.53
CC(C)C(=O)NC1CCCN(C(=O)c2cc3ccccc3cc2O)C1 (configuration not stated) | -4.18
O=C(NCc1ccccc1)NCC(O)c1cccc(F)c1 (configuration not stated) | -6.42
CC(C)C(=O)NC1CCCN(C(=O)c2ccc(O)c(Cl)c2)C1 (configuration not stated) | -9.92
CCN(Cc1c(F)cccc1F)Cn1nc(C)c2c(C)onc2c1=O | 2.01
Cc1cc(C)n(CC2CN(Cc3nc4ccccc4s3)CCO2)n1 (configuration not stated) | -5.7
CCOc1cccc2c1OCC(C(=O)NS(=O)(=O)c1cncc(Br)c1)=C2 | 2.74
COc1ccc(CC(=O)N2CCC(Nc3ccc(C)nn3)CC2)cc1 | -3.12
Cc1ccc(N(C)S(=O)(=O)c2cc(C(=O)O)cs2)cc1 | 4.32
O=C(c1cnc(-c2ccccn2)s1)N1CCCC1Cn1cccn1 (configuration not stated) | -8.6
O=C(c1cnc(-c2ncccn2)s1)N1CCCC1Cn1cccn1 (configuration not stated) | -2.29
CC(C)Oc1ccc(C(=O)NCc2ccc3c(c2)CCCN3C)cn1 | -2.36
CCOc1cccc2c1OCC(C(=O)NS(=O)(=O)c1ccc(Cl)s1)=C2 | -7.24
CC(O)CN1CCN(C(=O)c2ccc(CN(C)C)cc2)CC1 (configuration not stated) | -0.592
CN(Cc1noc(C2CC2)n1)C1CCN(CCn2cc(C#N)cn2)C1 (configuration not stated) | 22.1
Cc1ccn(-c2ccc(C(=O)N3CCCC(n4ccnc4)C3)cc2)n1 (configuration not stated) | -22.3
Cn1nccc1C1CCN(CC(O)c2cccc(F)c2)CC1 (configuration not stated) | -8.37
CN(C)c1ncccc1CNC(=O)N1CCCC1CN1CCCCC1 (configuration not stated) | -32
O=C(CN1CCN(C(=O)Cc2ccc3c(c2)OCCO3)CC1)NC1CC1 | -12.7
c1ccc(Cn2cncn2)c(CNCC2CNc3ccnn3C2)c1 (configuration not stated) | -13.5
CC(=O)N1CCCN(C(=O)c2ccn(-c3cccc(Cl)c3)n2)CC1 | -26.5
COc1ccc(C(=O)N2CCCCC2Cn2cccn2)c(F)c1 (configuration not stated) | -13.3

Compound | cytotoxicity at 70.5 h [%]
CCn1ccnc1CN1CCOC(CNc2cccnn2)C1 (configuration not stated) | -9.35
Cc1cc(C(=O)NCc2ccnc(N(C)C)c2)c(C)o1 | -13.2
O=C(NCCN1CCCCCC1=O)c1n[nH]c(=O)c2ccccc12 | -20.8
CN(C)c1ncccc1CNC(=O)N1CCCC1c1ccsc1 (configuration not stated) | -16.3
O=C1OCCN1CCc1nc(-c2cc3c4c(c2)CC(=O)N4CCC3)cs1 | 10.6
c1ccc(Cn2cccn2)c(CNCC2CNc3ccnn3C2)c1 (configuration not stated) | -11.7
O=C(c1ccn(-c2cccc(Cl)c2)n1)N1CCN(C2CC2)CC1 | -0.559
COc1ccc2cc(C(=O)N3CCCCC3CC(N)=O)[nH]c2c1 (configuration not stated) | -15.1
Cc1cccc(-c2nc(CN3CCc4cnc(C)nc4C3)no2)c1 | -21.3
Cc1ncc2c(n1)CN(Cc1noc(C3CC3)n1)CC2 | 15.6
Cc1cc(C)n(C2CN(CC(O)c3ccc(F)cc3)C2)n1 (configuration not stated) | -10.7
COc1ncccc1CNc1cc(N2CCCC2CO)ncn1 (configuration not stated) | -12
Cc1cnc(CN2CCOC(CNc3cccnn3)C2)cn1 (configuration not stated) | -8.2
CCN1CCC(NC(=O)CN2CCc3c(nc(C4CC4)n3C)C2)CC1 | -10.9
c1ccc(Cn2ccnc2CN2CCCC2c2noc(C3CC3)n2)cc1 (configuration not stated) | 8.17
O=C(NCC1CCSCC1)N(CCCO)C1CCc2ccccc21 (configuration not stated) | 24.2
CC(C)c1noc(CCCC(=O)NC2CCS(=O)(=O)C2)n1 (configuration not stated) | -0.791
CC(NC(=O)NCCCn1cncn1)c1ccccc1Cl (configuration not stated) | -2.04
CC(C)c1noc(CCC(=O)NCC2CCOC2)n1 (configuration not stated) | -2.41
COc1ccc(C)cc1C(C)NC(=O)NCCCn1cncn1 (configuration not stated) | -10.9
NC(=O)CN1CCCN(C(=O)Cc2ccc(F)c(Br)c2)CC1 | -8.24
O=C(NCCNC(=O)c1scnc1Cl)c1ccccc1 | -6.16
NC(=O)CN1CCCN(C(=O)Cc2ccc3c(c2)OCO3)CC1 | -2.14
Cn1ncc(C(=O)N2CCCC(n3cccn3)C2)c1C1CC1 (configuration not stated) | -4.62
c1ccc(-c2nc(CN3CCOC(Cn4cccn4)C3)no2)cc1 (configuration not stated) | 2.47
CC(C)c1nnc2n1CCN(C(=O)c1ccc3cc[nH]c3c1)C2 | 2.26

Compound | cytotoxicity at 70.5 h [%]
CCc1[nH]ncc1C(=O)N1CCCC(n2ccnc2C(C)C)C1 (configuration not stated) | 1.64
CC(C)c1nnc2n1CCN(C(=O)c1cccc(C(F)(F)F)c1)C2 | 6.51
c1ncn(CC2CN(Cc3noc(C4CC4)n3)CCO2)n1 (configuration not stated) | 29.1
CCc1ncc2c(n1)CN(CC(=O)Nc1nnc(C)s1)CC2 | -3.21
c1cnn(CC2CN(Cc3noc(C4CC4)n3)CCO2)c1 (configuration not stated) | -0.284
COc1ccc(CN(C)CC(=O)NC2(C)CCS(=O)(=O)C2)cc1F (configuration not stated) | -0.516
CCn1ccnc1CNCC1CCCN1c1cccnn1 (configuration not stated) | 5.62
Cc1ncc2c(n1)CN(Cc1nc3ccccc3o1)CC2 | 11.4
CCc1cc(C(=O)N2CCC(Nc3ccc(C)nn3)CC2)sc1C | -2.56
Cc1cc(CN2CCCC2c2noc(C)n2)no1 (configuration not stated) | 4.25
Cn1ccnc1CN1CCCC1c1noc(C2CC2)n1 (configuration not stated) | 1.39
OC(CN1CCOCC1)CN1CCc2c(ncn2C2CC2)C1 (configuration not stated) | 30.4
Cc1cnc(CN(C)C2CCN(Cc3ccccc3C#N)C2)o1 (configuration not stated) | -5.36
CCN1CCN(c2ccc(CNC(=O)c3ccc(Cl)o3)cn2)CC1 | 3.11
Cc1noc(C)c1C(=O)NCc1ccc(N2CCOC(C)C2)nc1 (configuration not stated) | 4.56
Cc1ccccc1CC(=O)N(C)C1CCN(c2ccccn2)CC1 | 25.2
Cc1nnc(NC(=O)CN2CCCC(Cn3cncn3)C2)s1 (configuration not stated) | -1.69
CCNc1cc2c(nn1)CCN(C(=O)c1cc3nc(C)ccc3o1)C2 | 22.7
CCc1nccn1C1CCCN(C(=O)Cc2ccc(OC)c(F)c2)C1 (configuration not stated) | 4.08
CCc1nc(C2CCCN2C(=O)C2=COCC2)no1 (configuration not stated) | 6.98
CN(CC(=O)Nc1ccc(Br)cn1)C(=O)Cc1ccc(O)cc1 | -1.46
CCc1noc(C(C)N2CCOCC2)n1 (configuration not stated) | 3.88
CCc1noc(C(C)N2CCC(N3CCCC3)CC2)n1 (configuration not stated) | 24.3
CCN1CCC(CNCc2c[nH]nc2C(C)(C)C)C1 (configuration not stated) | -2.99
